According to patent publication US11197914B2, “GLP-1R/GCGR dual target agonist polypeptide for treatment of fatty liver diseases, hyperlipemia and arteriosclerosis” (Shenzhen Turier Biotech Co., Ltd., priority 2016, dated 2021):
*1 amine or outer side, *2 acyl side, *3 side chain or, on linkers, in order; H or OH if unused. Primed or numbered codes have the meaning given here. Where no end group is shown, it is not given here. Side-chain parts run from the residue outwards. [ ]: non-standard residue; d: D form. The star is where a group is joined. C18 diacid = O=C(O)CCCCCCCCCCCCCCCCC(=O)*; C16 diacid = O=C(O)CCCCCCCCCCCCCCC(=O)*; γGlu = O=C(O)[C@H](CCC(=O)[*:2])N[*:1]; Stearoyl = CCCCCCCCCCCCCCCCCC(=O)*; Palmitoyl = CCCCCCCCCCCCCCCC(=O)*; PEG2′ = not defined here; Aib = CC(C)(N)C(=O)O

Test system: Hepatic stellate cell strain LX-2
Test: In vitro inhibition of hepatic fibrosis: expression of LX-2 cell activation marker α-SMA (Western Blot, α-SMA/β-actin)
Format: cell-based, human
Conditions: LX-2 cells; for Relative expression of α-SMA (α-SMA/β-actin, %): 48 hours, negative control = 100%
Experimental: Hepatic stellate cell strain LX-2 was selected to study and observe the effect of different doses of test substances on the expression of LX-2 cell activation marker […]. Hepatic stellate cell LX-2 was laid on 35 mm cell culture plate, cultured with DMEM (high glucose)+10% FBS+1% double-antibody culture medium (Thermo Fisher), placed overnight when the cells grew to 70% convergence at 37° C. and under the condition of 5% CO2, and treated with the above compounds 1-37 (dissolved in PBS) for 48 hours the next day morning to extract cell protein, carry out Western Blot, and take β-actin as internal reference and analyze the expression quantities of α-SMA and β-actin by a gray level of Image J 1.50i. PBS with the same volume as that in experimental group was added in negative control. […] The integrating gray level of α-SMA/β-actin in the negative control group was 100% to analyze the in vitro inhibition activity of hepatic fibrosis of tested polypeptide.

His-(D-Ser)-Gln-Gly-Thr-Phe-Thr-Ser-Asp-Tyr-Ser-Lys-Tyr-Leu-Asp-Aib-Lys(PEG2-PEG2-γGlu-CO(CH2)16CO2H)-Arg-Ala-Gln-Asp-Phe-Val-Gln-Trp-Leu-Met-Asn-Thr-Gly-Gly-Pro-Ser-Ser-Gly-Ala-Pro-Pro-Pro-Ser-NH2 (H[dS]QGTFTSDYSKYLD[Aib]K([PEG2′-PEG2′-γGlu-C18 diacid])RAQDFVQWLMNTGGPSSGAPPPS-NH2) [Compound 7]
Relative expression of α-SMA (α-SMA/β-actin, %) (1 μM): 73.52%

His-Aib-Gln-Gly-Thr-Phe-Thr-Ser-Asp-Lys(PEG2-PEG2-γGlu-CO(CH2)16CO2H)-Ser-Lys-Tyr-Leu-Asp-Glu-Arg-Arg-Ala-Gln-Asp-Phe-Val-Gln-Trp-Leu-Leu-Asp-Gly-Gly-Pro-Ser-Ser-Gly-Ala-Pro-Pro-Pro-Ser-NH2 (H[Aib]QGTFTSDK([PEG2′-PEG2′-γGlu-C18 diacid])SKYLDERRAQDFVQWLLDGGPSSGAPPPS-NH2) [Compound 15]
Relative expression of α-SMA (α-SMA/β-actin, %) (1 μM): 77.29%

His-(D-Ser)-Gln-Gly-Thr-Phe-Thr-Ser-Asp-Tyr-Ser-Lys-Tyr-Leu-Asp-Glu-Lys-Ala-Ala-Lys(PEG2-PEG2-γGlu-CO(CH2)14CH3)-Glu-Phe-Ile-Glu-Trp-Leu-Leu-Arg-Ala-NH2 (H[dS]QGTFTSDYSKYLDEKAAK([PEG2′-PEG2′-γGlu-Palmitoyl])EFIEWLLRA-NH2) [Compound 23]
Relative expression of α-SMA (α-SMA/β-actin, %) (1 μM): 95.91%

His-(D-Ser)-Gln-Gly-Thr-Phe-Thr-Ser-Asp-Tyr-Ser-Lys(PEG2-PEG2-CO(CH2)14CH3)-Lys-Leu-Asp-Aib-Arg-Arg-Ala-Gln-Asp-Phe-Val-Gln-Trp-Leu-Met-Asn-Thr-Gly-Gly-Pro-Ser-Ser-Gly-Ala-Pro-Pro-Pro-Ser-NH2 (H[dS]QGTFTSDYSK([PEG2′-PEG2′-Palmitoyl])KLD[Aib]RRAQDFVQWLMNTGGPSSGAPPPS-NH2) [Compound 9]
Relative expression of α-SMA (α-SMA/β-actin, %) (1 μM): 75.86%

His-(D-Ser)-Gln-Gly-Thr-Phe-Thr-Ser-Asp-Tyr-Ser-Lys-Tyr-Leu-Asp-Glu-Lys-Ala-Ala-Lys(PEG2-PEG2-γGlu-CO(CH2)16CH3)-Glu-Phe-Ile-Glu-Trp-Leu-Leu-Arg-Ala-NH2 (H[dS]QGTFTSDYSKYLDEKAAK([PEG2′-PEG2′-γGlu-Stearoyl])EFIEWLLRA-NH2) [Compound 24]
Relative expression of α-SMA (α-SMA/β-actin, %) (1 μM): 82.42%

His-(D-Ser)-Gln-Gly-Thr-Phe-Thr-Ser-Asp-Tyr-Ser-Lys-Tyr-Leu-Asp-Lys(PEG2-PEG2-CO(CH2)16CO2H)-Arg-Arg-Ala-Gln-Asp-Phe-Val-Gln-Trp-Leu-Met-Asn-Thr-Gly-Gly-Pro-Ser-Ser-Gly-Ala-Pro-Pro-Pro-Ser-NH2 (H[dS]QGTFTSDYSKYLDK([PEG2′-PEG2′-C18 diacid])RRAQDFVQWLMNTGGPSSGAPPPS-NH2) [Compound 35]
Inhibition of LX-2 cell activation marker α-SMA (in words, from Table 2): obviously reduce | Relative expression of α-SMA (α-SMA/β-actin, %) (1 μM): 61.28%

His-Aib-Gln-Gly-Thr-Phe-Thr-Ser-Asp-Lys(PEG2-PEG2-γGlu-CO(CH2)16CH3)-Ser-Lys-Tyr-Leu-Asp-Aib-Arg-Arg-Ala-Gln-Asp-Phe-Val-Gln-Trp-Leu-Leu-Asp-Gly-Gly-Pro-Ser-Ser-Gly-Ala-Pro-Pro-Pro-Ser-NH2 (H[Aib]QGTFTSDK([PEG2′-PEG2′-γGlu-Stearoyl])SKYLD[Aib]RRAQDFVQWLLDGGPSSGAPPPS-NH2) [Compound 12]
Relative expression of α-SMA (α-SMA/β-actin, %) (1 μM): 72.99%

His-(D-Ser)-Gln-Gly-Thr-Phe-Thr-Ser-Asp-Tyr-Ser-Lys-Tyr-Leu-Asp-Aib-Lys(PEG2-PEG2-γGlu-CO(CH2)14CH3)-Arg-Ala-Gln-Asp-Phe-Val-Gln-Trp-Leu-Met-Asn-Thr-Gly-Gly-Pro-Ser-Ser-Gly-Ala-Pro-Pro-Pro-Ser-NH2 (H[dS]QGTFTSDYSKYLD[Aib]K([PEG2′-PEG2′-γGlu-Palmitoyl])RAQDFVQWLMNTGGPSSGAPPPS-NH2) [Compound 33]
Relative expression of α-SMA (α-SMA/β-actin, %) (1 μM): 95.45%

His-(D-Ser)-Gln-Gly-Thr-Phe-Thr-Ser-Asp-Tyr-Ser-Lys(PEG2-PEG2-γGlu-CO(CH2)16CO2H)-Lys-Leu-Asp-Aib-Arg-Arg-Ala-Gln-Asp-Phe-Val-Gln-Trp-Leu-Met-Asn-Thr-Gly-Gly-Pro-Ser-Ser-Gly-Ala-Pro-Pro-Pro-Ser-NH2 (H[dS]QGTFTSDYSK([PEG2′-PEG2′-γGlu-C18 diacid])KLD[Aib]RRAQDFVQWLMNTGGPSSGAPPPS-NH2) [Compound 20]
Inhibition of LX-2 cell activation marker α-SMA (in words, from Table 2): obviously reduce | Relative expression of α-SMA (α-SMA/β-actin, %) (1 μM): 68.39%

His-Aib-Gln-Gly-Thr-Phe-Thr-Ser-Asp-Lys(PEG2-PEG2-γGlu-CO(CH2)14CO2H)-Ser-Lys-Tyr-Leu-Asp-Glu-Arg-Arg-Ala-Gln-Asp-Phe-Val-Gln-Trp-Leu-Leu-Asp-Gly-Gly-Pro-Ser-Ser-Gly-Ala-Pro-Pro-Pro-Ser-NH2 (H[Aib]QGTFTSDK([PEG2′-PEG2′-γGlu-C16 diacid])SKYLDERRAQDFVQWLLDGGPSSGAPPPS-NH2) [Compound 13]
Relative expression of α-SMA (α-SMA/β-actin, %) (1 μM): 97.93%

His-(D-Ser)-Gln-Gly-Thr-Phe-Thr-Ser-Asp-Tyr-Ser-Lys-Tyr-Leu-Asp-Glu-Lys-Ala-Ala-Lys(PEG2-PEG2-γGlu-CO(CH2)14CH3)-Glu-Phe-Ile-Glu-Trp-Leu-Leu-Asn-Gly-Gly-Pro-Ser-Ser-Gly-Ala-Pro-Pro-Pro-Ser-NH2 (H[dS]QGTFTSDYSKYLDEKAAK([PEG2′-PEG2′-γGlu-Palmitoyl])EFIEWLLNGGPSSGAPPPS-NH2) [Compound 29]
Relative expression of α-SMA (α-SMA/β-actin, %) (1 μM): 89.36%

His-(D-Ser)-Gln-Gly-Thr-Phe-Thr-Ser-Asp-Tyr-Ser-Lys-Tyr-Leu-Asp-Glu-Lys-Ala-Ala-Lys(PEG2-PEG2-γGlu-CO(CH2)16CH3)-Glu-Phe-Ile-Glu-Trp-Leu-Leu-Asn-Gly-Gly-Pro-Ser-Ser-Gly-Ala-Pro-Pro-Pro-Ser-NH2 (H[dS]QGTFTSDYSKYLDEKAAK([PEG2′-PEG2′-γGlu-Stearoyl])EFIEWLLNGGPSSGAPPPS-NH2) [Compound 28]
Relative expression of α-SMA (α-SMA/β-actin, %) (1 μM): 87.62%

His-(D-Ser)-Gln-Gly-Thr-Phe-Thr-Ser-Asp-Tyr-Ser-Lys-Tyr-Leu-Asp-Lys(PEG2-PEG2-γGlu-CO(CH2)16CO2H)-Arg-Arg-Ala-Gln-Asp-Phe-Val-Gln-Trp-Leu-Met-Asn-Thr-Gly-Gly-Pro-Ser-Ser-Gly-Ala-Pro-Pro-Pro-Ser-NH2 (H[dS]QGTFTSDYSKYLDK([PEG2′-PEG2′-γGlu-C18 diacid])RRAQDFVQWLMNTGGPSSGAPPPS-NH2) [Compound 34]
Relative expression of α-SMA (α-SMA/β-actin, %) (1 μM): 88.18%

His-(D-Ser)-Gln-Gly-Thr-Phe-Thr-Ser-Asp-Tyr-Ser-Lys-Tyr-Leu-Asp-Ser-Lys(PEG2-PEG2-γGlu-CO(CH2)16CO2H)-Ala-Ala-His-Asp-Phe-Val-Glu-Trp-Leu-Leu-Arg-Ala-NH2 (H[dS]QGTFTSDYSKYLDSK([PEG2′-PEG2′-γGlu-C18 diacid])AAHDFVEWLLRA-NH2) [Compound 17]
Relative expression of α-SMA (α-SMA/β-actin, %) (1 μM): 75.38%

His-(D-Ser)-Gln-Gly-Thr-Phe-Thr-Ser-Asp-Tyr-Ser-Lys-Tyr-Leu-Asp-Ser-Lys(PEG2-PEG2-γGlu-CO(CH2)16CO2H)-Ala-Ala-His-Asp-Phe-Val-Glu-Trp-Leu-Leu-Asn-Gly-Gly-Pro-Ser-Ser-Gly-Ala-Pro-Pro-Pro-Ser-NH2 (H[dS]QGTFTSDYSKYLDSK([PEG2′-PEG2′-γGlu-C18 diacid])AAHDFVEWLLNGGPSSGAPPPS-NH2) [Compound 21]
Relative expression of α-SMA (α-SMA/β-actin, %) (1 μM): 97.66%

His-Aib-Gln-Gly-Thr-Phe-Thr-Ser-Asp-Lys(PEG2-PEG2-γGlu-CO(CH2)14CH3)-Ser-Lys-Tyr-Leu-Asp-Glu-Arg-Arg-Ala-Gln-Asp-Phe-Val-Gln-Trp-Leu-Leu-Asp-Gly-Gly-Pro-Ser-Ser-Gly-Ala-Pro-Pro-Pro-Ser-NH2 (H[Aib]QGTFTSDK([PEG2′-PEG2′-γGlu-Palmitoyl])SKYLDERRAQDFVQWLLDGGPSSGAPPPS-NH2) [Compound 16]
Inhibition of LX-2 cell activation marker α-SMA (in words, from Table 2): obviously reduce | Effect on expression of α-SMA (in words) (0.1 μM, 1 μM and 5 μM): reduce the expression of α-SMA under all concentrations | Relative expression of α-SMA (α-SMA/β-actin, %) (0.1 μM): 65.32% | Relative expression of α-SMA (α-SMA/β-actin, %) (1 μM): 48.88% | Relative expression of α-SMA (α-SMA/β-actin, %) (5 μM): 40.35%

His-(D-Ser)-Gln-Gly-Thr-Phe-Thr-Ser-Asp-Lys(PEG2-PEG2-CO(CH2)14CH3)-Ser-Lys-Tyr-Leu-Asp-Aib-Arg-Arg-Ala-Gln-Asp-Phe-Val-Gln-Trp-Leu-Met-Asn-Thr-Gly-Gly-Pro-Ser-Ser-Gly-Ala-Pro-Pro-Pro-Ser-NH2 (H[dS]QGTFTSDK([PEG2′-PEG2′-Palmitoyl])SKYLD[Aib]RRAQDFVQWLMNTGGPSSGAPPPS-NH2) [Compound 31]
Relative expression of α-SMA (α-SMA/β-actin, %) (1 μM): 86.89%

His-(D-Ser)-Gln-Gly-Thr-Phe-Thr-Ser-Asp-Tyr-Ser-Lys-Tyr-Leu-Asp-Glu-Lys-Ala-Ala-Lys(PEG2-PEG2-γGlu-CO(CH2)16CO2H)-Glu-Phe-Ile-Glu-Trp-Leu-Leu-Arg-Ala-NH2 (H[dS]QGTFTSDYSKYLDEKAAK([PEG2′-PEG2′-γGlu-C18 diacid])EFIEWLLRA-NH2) [Compound 18]
Relative expression of α-SMA (α-SMA/β-actin, %) (1 μM): 75.60%

His-Aib-Gln-Gly-Thr-Phe-Thr-Ser-Asp-Lys(PEG2-PEG2-γGlu-CO(CH2)16CH3)-Ser-Lys-Tyr-Leu-Asp-Glu-Arg-Arg-Ala-Gln-Asp-Phe-Val-Gln-Trp-Leu-Leu-Asp-Gly-Gly-Pro-Ser-Ser-Gly-Ala-Pro-Pro-Pro-Ser-NH2 (H[Aib]QGTFTSDK([PEG2′-PEG2′-γGlu-Stearoyl])SKYLDERRAQDFVQWLLDGGPSSGAPPPS-NH2) [Compound 14]
Relative expression of α-SMA (α-SMA/β-actin, %) (1 μM): 92.80%
